Experiment [1] has as its target T1, human amylin receptor (membranes from Amylin 3(a)/CRE-luc cells) (Homo sapiens, UniProt O60896+P30988).
T1 construct: expressed in transfected cells
T1 sequence (P30988 25-474): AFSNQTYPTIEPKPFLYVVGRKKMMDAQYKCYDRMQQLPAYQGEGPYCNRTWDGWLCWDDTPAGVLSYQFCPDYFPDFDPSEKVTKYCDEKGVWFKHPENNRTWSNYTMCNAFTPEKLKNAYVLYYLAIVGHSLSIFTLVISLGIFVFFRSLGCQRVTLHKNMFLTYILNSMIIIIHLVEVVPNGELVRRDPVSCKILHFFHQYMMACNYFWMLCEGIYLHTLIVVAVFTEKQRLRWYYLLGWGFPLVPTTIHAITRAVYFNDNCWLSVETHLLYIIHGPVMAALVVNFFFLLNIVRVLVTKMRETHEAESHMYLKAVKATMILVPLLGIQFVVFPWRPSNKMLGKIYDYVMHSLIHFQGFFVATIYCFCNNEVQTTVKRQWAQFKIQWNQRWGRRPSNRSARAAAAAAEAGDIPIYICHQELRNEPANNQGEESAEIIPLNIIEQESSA
T1 sequence (O60896 24-148 partner): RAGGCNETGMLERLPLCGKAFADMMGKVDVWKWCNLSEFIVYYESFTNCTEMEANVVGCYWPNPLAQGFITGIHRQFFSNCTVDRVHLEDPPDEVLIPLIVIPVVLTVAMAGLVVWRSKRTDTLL
Briefly: ASSAY (V) binding to the human amylin receptor (SPA, 125I-rat amylin).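 As to all read-outs here: competition binding of cell membranes (35 ng/µL) mixed with SPA beads in 384-well plates at 40 µL total volume, read by scintillation counting.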 As to conditions: for IC50: Table 4, read-out: hAmylin-R bind IC50.

For experiment [2], the target named is T2, human amylin 3(a) receptor (human calcitonin receptor + RAMP-3) in BHK570 cells (Homo sapiens, UniProt O60896+P30988).
T2 construct: expressed in transfected cells
Briefly: ASSAY (II)a functional assay, human amylin receptor (CRE luciferase). Format: cell-based. To be noted: for EC50: human amylin receptor functional potency, assay (II), read-out: hAmylin-R funct. EC50. The method in brief:
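Cells were seeded and cultured overnight, then incubated with standard or sample for 3 h at 37° C in serum-containing medium at pH 7.4. The medium was then swapped for PBS, LucLite was added for 30 min at room temperature, and luminescence was recorded. Cells were BHK with CRE-luc and calcitonin receptor, ± RAMP-3.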

The mark [3] stands for this setting: Table 5, selectivity, hCTR bind IC50 / hAmylin-R bind IC50.
Setting [4] is: Table 7, human binding selectivity, included for comparison.
[5] abbreviates: hCTR funct. EC50 / hAmylin-R funct. EC50.
Setting [6] is: hCTR funct. EC50 divided by hAmylin-R funct. EC50.
The mark [7] stands for this setting: hCTR funct. EC50 over hAmylin-R funct. EC50.
Setting [8] is: human functional selectivity: hCTR funct. EC50 / hAmylin-R funct. EC50.

The structures appear in SMILES notation. Numbered stars: 1 amine (or outer) side, 2 acyl side, 3 side chain; on linkers, the order of the positions; unused ones are H or OH. Bridge positions count the residues as written; N and C are the ends. Side chains are listed from the residue outwards. Peptide text beside a SMILES is read from it. * marks the point of attachment. C20 diacid = O=C(O)CCCCCCCCCCCCCCCCCCC(=O)*; γGlu = O=C(O)[C@H](CCC(=O)[*:2])N[*:1]; AEEA = NCCOCCOCC(=O)O

As usually defined, the IC50 is the point on the concentration scale where inhibition reaches its midpoint. As usually defined, the EC50 is the concentration that produces a half-maximal response. On to `CC[C@H](C)[C@H](NC(=O)[C@H](C)NC(=O)CNC(=O)[C@H](Cc1ccccc1)NC(=O)[C@H](CC(N)=O)NC(=O)[C@@H]1CCCN1C(=O)[C@H](CO)NC(=O)[C@H](CO)NC(=O)[C@H](Cc1c[nH]cn1)NC(=O)[C@H](CCCNC(=N)N)NC(=O)[C@H](CC(C)C)NC(=O)[C@H](Cc1ccccc1)NC(=O)[C@H](CC(=O)O)NC(=O)[C@H](C)NC(=O)[C@H](CC(C)C)NC(=O)[C@H](CCCNC(=N)N)NC(=O)[C@H](CCC(N)=O)NC(=O)[C@@H](NC(=O)[C@H](C)NC(=O)[C@@H]1CSSC[C@H](NC(=O)[C@H](CCCCN)NC(=O)CC[C@H](NC(=O)CCCCCCCCCCCCCCCCCCC(=O)O)C(=O)O)C(=O)N[C@@H](CC(N)=O)C(=O)N[C@@H]([C@@H](C)O)C(=O)N[C@@H](C)C(=O)N[C@@H]([C@@H](C)O)C(=O)N1)[C@@H](C)O)C(=O)N1CCC[C@H]1C(=O)N[C@@H](CO)C(=O)N[C@@H](CO)C(=O)N[C@H](C(=O)N[C@@H](CC(N)=O)C(=O)N[C@H](C(=O)NCC(=O)N[C@@H](CO)C(=O)N[C@@H](CC(N)=O)C(=O)N[C@H](C(=O)N1CCC[C@H]1C(N)=O)[C@@H](C)O)C(C)C)[C@@H](C)O` [Example 10] ({C20 diacid-γGlu}-KCNTATCATQRLADFLRHSSPNFGAIPSSTNVGSNTP-NH2; disulfide 2-7 (inferred)), for which the IC50 in experiment [1] was found to be 0.082 nM. The “Ratio hCT/hAmylin binding” value in experiment [1] (setting [3]) and in experiment [1] (setting [4]) was 1.2 in each case. In addition, the “Ratio hCT/hAmylin funct.” value in experiment [2] (setting [5]), in experiment [2] (setting [6]), in experiment [2] (setting [7]) and in experiment [2] (setting [8]) was 1.0 throughout. Further, the EC50 in experiment [2] was 0.072 nM.
With `CC[C@H](C)[C@H](NC(=O)[C@H](C)NC(=O)CNC(=O)[C@H](Cc1ccccc1)NC(=O)[C@H](CC(N)=O)NC(=O)[C@@H]1CCCN1C(=O)[C@H](CO)NC(=O)[C@H](CO)NC(=O)[C@H](Cc1c[nH]cn1)NC(=O)[C@H](CCCNC(=N)N)NC(=O)[C@H](CC(C)C)NC(=O)[C@H](Cc1ccccc1)NC(=O)[C@H](CCC(=O)O)NC(=O)[C@H](C)NC(=O)[C@H](CC(C)C)NC(=O)[C@H](CCCNC(=N)N)NC(=O)[C@H](CCC(N)=O)NC(=O)[C@@H](NC(=O)[C@H](C)NC(=O)[C@@H]1CSSC[C@H](NC(=O)[C@H](CCCCN)NC(=O)COCCOCCNC(=O)COCCOCCNC(=O)CC[C@H](NC(=O)CCCCCCCCCCCCCCCCCCC(=O)O)C(=O)O)C(=O)N[C@@H](CC(N)=O)C(=O)N[C@@H]([C@@H](C)O)C(=O)N[C@@H](C)C(=O)N[C@@H]([C@@H](C)O)C(=O)N1)[C@@H](C)O)C(=O)N1CCC[C@H]1C(=O)N[C@@H](CO)C(=O)N[C@@H](CO)C(=O)N[C@H](C(=O)N[C@@H](CC(N)=O)C(=O)N[C@H](C(=O)NCC(=O)N[C@@H](CO)C(=O)N[C@@H](CC(N)=O)C(=O)N[C@H](C(=O)N1CCC[C@H]1C(N)=O)[C@@H](C)O)C(C)C)[C@@H](C)O` [Example 20] ({C20 diacid-γGlu-AEEA-AEEA}-KCNTATCATQRLAEFLRHSSPNFGAIPSSTNVGSNTP-NH2; disulfide 2-7), the half-maximal inhibitory concentration (IC50) in experiment [1] was 0.217 nM. In addition, the “Ratio hCT/hAmylin binding” value in experiment [1] (setting [3]) and in experiment [1] (setting [4]) was 3.6 each time. Moreover, the “Ratio hCT/hAmylin funct.” value in experiment [2] (setting [5]), in experiment [2] (setting [6]), in experiment [2] (setting [7]) and in experiment [2] (setting [8]) was 3.6 each time. Further, in experiment [2], the EC50 came to 0.08 nM.
As to `CC[C@H](C)[C@H](NC(=O)[C@H](C)NC(=O)CNC(=O)[C@H](Cc1ccccc1)NC(=O)[C@H](CC(N)=O)NC(=O)[C@@H]1CCCN1C(=O)[C@H](CO)NC(=O)[C@H](CO)NC(=O)[C@H](Cc1c[nH]cn1)NC(=O)[C@H](CCCNC(=N)N)NC(=O)[C@H](CC(C)C)NC(=O)[C@H](Cc1ccccc1)NC(=O)[C@H](Cc1c[nH]cn1)NC(=O)[C@H](C)NC(=O)[C@H](CC(C)C)NC(=O)[C@H](CCCNC(=N)N)NC(=O)[C@H](CCC(N)=O)NC(=O)[C@@H](NC(=O)[C@H](C)NC(=O)[C@@H]1CSSC[C@H](NC(=O)[C@@H](N)CCCCNC(=O)CC[C@H](NC(=O)CCCCCCCCCCCCCCCCCCC(=O)O)C(=O)O)C(=O)N[C@@H](CC(N)=O)C(=O)N[C@@H]([C@@H](C)O)C(=O)N[C@@H](C)C(=O)N[C@@H]([C@@H](C)O)C(=O)N1)[C@@H](C)O)C(=O)N1CCC[C@H]1C(=O)N[C@@H](CO)C(=O)N[C@@H](CO)C(=O)N[C@H](C(=O)N[C@@H](CC(N)=O)C(=O)N[C@H](C(=O)NCC(=O)N1CCC[C@H]1C(=O)N[C@@H](CC(N)=O)C(=O)N[C@H](C(=O)N1CCC[C@H]1C(N)=O)[C@@H](C)O)C(C)C)[C@@H](C)O` [Example 115] (H-K([γGlu-C20 diacid])CNTATCATQRLAHFLRHSSPNFGAIPSSTNVGPNTP-NH2; disulfide 2-7 (inferred); N-terminus assumed), the 50% inhibitory concentration (IC50) in experiment [1] is 0.131 nM. The “Ratio hCT/hAmylin binding” value in experiment [1] (setting [3]) and in experiment [1] (setting [4]) was 1.2 in each case. Further, the “Ratio hCT/hAmylin funct.” value in experiment [2] (setting [5]), in experiment [2] (setting [6]), in experiment [2] (setting [7]) and in experiment [2] (setting [8]) was 0.8 throughout. In experiment [2], the EC50 was determined as 0.052 nM.
`CC[C@H](C)[C@H](NC(=O)[C@H](C)NC(=O)CNC(=O)[C@H](Cc1ccccc1)NC(=O)[C@H](CC(N)=O)NC(=O)[C@@H]1CCCN1C(=O)[C@H](CO)NC(=O)[C@H](CO)NC(=O)[C@H](Cc1c[nH]cn1)NC(=O)[C@H](CCCNC(=N)N)NC(=O)[C@H](CC(C)C)NC(=O)[C@H](Cc1ccccc1)NC(=O)[C@H](CCC(=O)O)NC(=O)[C@H](C)NC(=O)[C@H](CC(C)C)NC(=O)[C@H](CCCNC(=N)N)NC(=O)[C@H](CCC(N)=O)NC(=O)[C@@H](NC(=O)[C@H](C)NC(=O)[C@@H]1CSSC[C@H](NC(=O)[C@H](CCCCN)NC(=O)CC[C@H](NC(=O)CC[C@H](NC(=O)CCCCCCCCCCCCCCCCCCC(=O)O)C(=O)O)C(=O)O)C(=O)N[C@@H](CC(N)=O)C(=O)N[C@@H]([C@@H](C)O)C(=O)N[C@@H](C)C(=O)N[C@@H]([C@@H](C)O)C(=O)N1)[C@@H](C)O)C(=O)N1CCC[C@H]1C(=O)N[C@@H](CO)C(=O)N[C@@H](CO)C(=O)N[C@H](C(=O)N[C@@H](CC(N)=O)C(=O)N[C@H](C(=O)NCC(=O)N[C@@H](CO)C(=O)N[C@@H](CC(N)=O)C(=O)N[C@H](C(=O)N[C@@H](Cc1ccc(O)cc1)C(N)=O)[C@@H](C)O)C(C)C)[C@@H](C)O` [Example 15] ({C20 diacid-γGlu-γGlu}-KCNTATCATQRLAEFLRHSSPNFGAIPSSTNVGSNTY-NH2; disulfide 2-7 (inferred)): the half-maximal inhibitory concentration (IC50) in experiment [1] came out at 0.597 nM. In addition, the “Ratio hCT/hAmylin binding” value in experiment [1] (setting [3]) came out at 26.0; in experiment [1] (Table 5a, selectivity, hCTR bind IC50 / hAmylin-R bind IC50) it was 26.0; in experiment [1] (Table 5b, selectivity, hCTR bind IC50 / hAmylin-R bind IC50), 26.0; in experiment [1] (Table 5c, selectivity, hCTR bind IC50 / hAmylin-R bind IC50), 26.0; in experiment [1] (setting [4]), 26.0; in experiment [1] (Table 7a (preferred compounds), human binding selectivity, included for comparison), 26.0. Also, the “Ratio hCT/hAmylin binding” value in experiment [1] (ratio of human calcitonin receptor binding IC50 to human amylin receptor binding IC50) is 26.0. Also, the “Ratio hCT/hAmylin funct.” value in experiment [2] (setting [6]), in experiment [2] (setting [7]) and in experiment [2] (setting [8]) was 8.9 each time. Further, the half-maximal effective concentration (EC50) in experiment [2] is 0.386 nM.

Values taken from patent publication US9023789B2, “Amylin analogs and pharmaceutical compositions thereof” (Novo Nordisk A/S, priority 2012, dated 2015).
